Measured values from patent US11248234B2, “Herbicide-resistant hydroxyphenylpyruvate dioxygenases” (BASF SE, priority 2015, dated 2022).

Columns and labels:
[1] = molecular target: Scenedesmus Short HPPD (Seq ID: 4) (Tetradesmus obliquus, UniProt A0A383WMN4, DEL398-433/N195D); assay: In vitro HPPD activity assay; format: biochemical; settings: for TI (normalized tolerance index): normalized on Arabidopsis wild-type HPPD (SEQ ID NO:42)
Outline: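 Purified mutant HPPD (0.2 units) in 150 mM phosphate pH 7.0 with ascorbate, catalase and 1 µM FeSO4 was preincubated 30 min with inhibitor (5 µM–320 pM final, 1% DMSO). Reaction ran 45 min at room temperature with 0.05 mM 4-HPP. HGA was quantified by UPLC with electrochemical detection, and IC50 came from non-linear regression, with Ki by Cheng-Prusoff.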

[2] = molecular target: T1, Arabidopsis HPPD (Seq ID: 42) (Arabidopsis thaliana, UniProt P93836); assay: In vitro HPPD activity assay (homogentisic acid by HPLC); format: biochemical; settings: benchmark enzyme; normalized on Arabidopsis wild-type HPPD
T1 construct: His6; made in house; host or cells: E. coli BL21 (DE3)
T1 sequence (P93836 1-445): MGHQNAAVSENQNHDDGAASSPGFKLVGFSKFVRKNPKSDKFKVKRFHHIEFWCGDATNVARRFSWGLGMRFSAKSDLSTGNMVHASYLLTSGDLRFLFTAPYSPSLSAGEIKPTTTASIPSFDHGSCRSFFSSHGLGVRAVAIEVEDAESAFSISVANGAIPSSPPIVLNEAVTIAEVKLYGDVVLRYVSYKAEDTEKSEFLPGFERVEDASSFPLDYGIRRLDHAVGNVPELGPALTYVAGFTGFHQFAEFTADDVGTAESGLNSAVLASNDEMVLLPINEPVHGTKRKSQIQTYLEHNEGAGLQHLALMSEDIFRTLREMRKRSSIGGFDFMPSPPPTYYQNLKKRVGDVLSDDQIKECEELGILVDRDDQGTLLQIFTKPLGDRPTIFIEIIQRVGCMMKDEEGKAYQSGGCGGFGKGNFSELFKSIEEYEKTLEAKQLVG
Protocol: HPPD produces homogentisic acid and CO2 from 4-hydroxyphenylpyruvate (4-HPP) and O2. The activity assay for HPPD is based on the analysis of homogentisic acid by reversed phase HPLC.
The assay mixture can contain 150 mM potassium phosphate buffer pH 7.0, 50 mM L-ascorbic acid, 100 μM Catalase (Sigma-Aldrich), 1 μM FeSO4 and 0.2 units of purified mutated HPPD enzyme in a total volume of 505 μl. 1 unit is defined as the amount of enzyme that is required to produce 1 nmol of HGA per minute at 20° C.
After a preincubation of 30 min the reaction is started by adding 4-HPP to a final concentration of 0.05 mM. The reaction is allowed to proceed for 45 min at room temperature. The reaction is stopped by the addition of 50 μl of 4.5 M phosphoric acid. The sample is filtered using a […] pore size PVDF filtration device.
5 μl of the cleared sample is analyzed on an UPLC HSS T3 column (particle size 1.8 μm, dimensions 2.1×50 mm; Waters) by isocratic elution using 90% 20 mM NaH2PO4 pH 2.2, 10% methanol (v/v).
HGA is detected electrochemically at 750 mV (mode: DC; polarity: positive) and quantified by integrating peak areas (Empower software; Waters).
Inhibitors are dissolved in DMSO (dimethylsulfoxide) to a concentration of 0.5 mM. From this stock solution serial five-fold dilutions are prepared in DMSO, which are used in the assay. The respective inhibitor solution accounts for 1% of the assay volume. […] Activities are normalized by setting the uninhibited enzyme activity to 100%. IC50 values are calculated using non-linear regression.
Using methods which are described in the above examples or well known in the art, purified, recombinant mutated HPPD enzymes are characterized with respect to their kinetic properties and sensitivity towards HPPD inhibiting herbicides. Apparent michaelis constants (Km) and maximal reaction velocities (Vmax) are calculated by non-linear regression with the software GraphPad Prism 5 (GraphPad Software, La Jolla, USA) using a substrate inhibition model. […] Weighted means (by standard error) of Km and IC50 values are calculated from at least three independent experiments.
Field performance of the HPPD enzyme, which is used as a herbicide tolerance trait may depend not only on its lack of sensitivity towards HPPD inhibiting herbicides but also on its activity. To assess the potential performance of a herbicide tolerance trait a tolerance index (TI) is calculated using the following formula: […]
Easy comparison and ranking of each trait is enabled by normalizing tolerance indexes on Arabidopsis wild-type HPPD.

[3] = tested on: transgenic Arabidopsis plants (T2) SoHPPD F363I (short); assay: Greenhouse spray test, injury evaluation; format: in vivo, Arabidopsis thaliana; settings: 14 DAT
Protocol: (§1) Non-transgenic control plants were treated in parallel and pictures taken 14 days after treatment.
(§2) For post emergence treatment, the test plants are first grown to a height of 3 to 15 cm, depending on the plant habit, and only then treated with the herbicides. For this purpose, the test plants are either sown directly and grown in the same containers, or they are first grown separately and transplanted into the test containers a few days prior to treatment.
(§3) Additionally, T1 and T2 transgenic Arabidopsis plants can be tested for improved tolerance to HPPD-inhibiting herbicides in greenhouse studies. Herbicide injury scoring is done 2-3 weeks after treatment and is rated on a scale of 0 to 100%, 0% being no injury and 100% being complete death.
(§4) Transgenic T2 Arabidopsis plants were sprayed with a range of doses from 1.56-25 g/ha of different HPPD-inhibiting herbicides and injury evaluations were taken two weeks after treatment (FIG. 4). As depicted in Table 8, control plants were severely injured by all doses of herbicides applied, with at least 58% of leaf material being damaged at the lowest application rate and 100% leaf damage at the second application rate.

[4] = tested on: transgenic Arabidopsis plants (T2) SoHPPD I419V (short); assay: Greenhouse spray test, injury evaluation; format: in vivo, Arabidopsis thaliana; settings: for Injury: 14 DAT
Protocol: as §1, §2, §3, §4

[5] = tested on: WT (non-transgenic control) Arabidopsis plants; assay: Greenhouse spray test, injury evaluation; format: in vivo, Arabidopsis thaliana; settings: 14 DAT
Protocol: as §1, §2, §3, §4

Sequence of Scenedesmus Short HPPD (Seq ID: 4) (A0A383WMN4 entry or part of it N195D/DEL398-433): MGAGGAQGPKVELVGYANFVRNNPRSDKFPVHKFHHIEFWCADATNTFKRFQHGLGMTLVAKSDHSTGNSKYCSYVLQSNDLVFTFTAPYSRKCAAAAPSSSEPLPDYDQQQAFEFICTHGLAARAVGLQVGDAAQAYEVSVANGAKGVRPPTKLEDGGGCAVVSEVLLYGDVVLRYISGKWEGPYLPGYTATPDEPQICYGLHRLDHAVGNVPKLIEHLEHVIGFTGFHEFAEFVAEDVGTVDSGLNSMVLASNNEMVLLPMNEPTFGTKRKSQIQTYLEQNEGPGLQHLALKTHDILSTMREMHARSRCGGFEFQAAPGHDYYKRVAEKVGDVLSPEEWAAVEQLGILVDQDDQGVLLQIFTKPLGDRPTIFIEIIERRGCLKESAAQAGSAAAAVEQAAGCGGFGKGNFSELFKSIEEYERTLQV

Row | Structure (SMILES) | TI (normalized tolerance index) [1] | TI (normalized tolerance index) [2] | Injury ([3]; Event B, 1.56 g ai/ha) | Injury ([3]; Event B, 6.25 g ai/ha) | Injury ([3]; Event B, 25 g ai/ha) | Injury ([3]; Event C, 1.56 g ai/ha) | Injury ([3]; Event C, 6.25 g ai/ha) | Injury ([3]; Event C, 25 g ai/ha) | average injury rate ([4]; 25 g ai/ha, average of events) | Injury ([4]; Event G, 1.56 g ai/ha) | Injury ([4]; Event G, 6.25 g ai/ha) | Injury ([4]; Event G, 25 g ai/ha) | Injury ([4]; Event H, 1.56 g ai/ha) | Injury ([4]; Event H, 6.25 g ai/ha) | Injury ([4]; Event H, 25 g ai/ha) | Injury ([5]; 1.56 g ai/ha) | Injury ([5]; 6.25 g ai/ha) | Injury ([5]; 25 g ai/ha) | Ki [1]
1 | CC(=O)N(C)c1c(Cl)ccc(C2=C(O)c3ncccc3C(C)(C)S2(=O)=O)c1Cl [Inhibitor 5, N-[2,6-dichloro-3-(8-hydroxy-5,5-dimethyl-6,6-dioxo-thiopyrano[4,3-b]pyridin-7-yl)phenyl]-N-methyl-acetamide] | 1.3 | 1.0 |  |  |  |  |  |  |  |  |  |  |  |  |  |  |  |  | 
2 | CS(=O)(=O)c1ccc(C(=O)C2C(=O)CCCC2=O)c([N+](=O)[O-])c1 [Inhibitor 2, 2-(4-methylsulfonyl-2-nitro-benzoyl)cyclohexane-1,3-dione] | 0.0 | 1.0 | 0% | 0% | 3% | 5% | 0% | 0% | 75% | 0% | 0% | 95% | 5% | 8% | 58% | 58% | 100% | 100% | 
3 | CCS(=O)(=O)c1cc(C(F)(F)F)ccc1C1=C(O)c2ncccc2C(C)(C)S1(=O)=O [Inhibitor 4, 7-[2-ethylsulfonyl-4-(trifluoromethyl)phenyl]-5,5-dimethyl-6,6-dioxo-thiopyrano[4,3-b]pyridin-8-ol] | 1.4 | 1.0 |  |  |  |  |  |  |  |  |  |  |  |  |  |  |  |  | 
4 | Cc1c(C(=O)c2cnn(C)c2O)ccc(S(C)(=O)=O)c1C1=NOCC1 [Inhibitor 1, [3-(4,5-dihydroisoxazol-3-yl)-2-methyl-4-methylsulfonyl-phenyl]-(5-hydroxy-1-methyl-pyrazol-4-yl)methanone] |  |  | 0% | 0% | 0% | 0% | 0% | 0% |  | 5% | 8% | 13% | 0% | 0% | 13% | 75% | 100% | 100% | 46 nM
5 | CCSc1ccc(Cl)c(C(=O)Nc2nnnn2C)c1Cl [Inhibitor 8, 2,6-dichloro-3-ethylsulfanyl-N-(1-methyltetrazol-5-yl)benzamide] | 0.9 | 1.0 |  |  |  |  |  |  |  |  |  |  |  |  |  |  |  |  | 
